Test results taken from US7407775B2, “Method for identifying Listeria monocytogenes and culture medium” (Biomerieux S.A., priority 2000, dated 2008).

What was measured:
Type in all cases: cell-based
[1] = test system: Listeria innocua 166; experiment: Experiment 2: octanoate esterase substrates with different Indoxyl-based chromogenic markers; design: key: —: the symbol “-” corresponds to the absence of color or intensity; 0 corresponds to no activity; 0.1 corresponds to a trace of color; 0.5 corresponds to very pale coloration; 1 corresponds to clear but low-intensity coloration; 1.5 corresponds to a degree of coloration intermediate between scores 1 and 2; 2 corresponds to clear coloration of moderate intensity; 2.5 corresponds to a degree of coloration intermediate between scores 2 and 3; 3 corresponds to intense coloration; 3.5 corresponds to a degree of coloration intermediate between scores 3 and 4; 4 corresponds to very intense coloration; conditions: 37° C., substrate 250 mg/l
Description: (§1) In Table 1 above, as in the following Tables, C represents the color of the colonies after incubation, I represents the intensity of the color, and the symbol “-” corresponds to the absence of color or intensity; finally, IT defines the incubation time. It should be noted that the intensity of the color is scored on an arbitrary scale but one which is consistent for all the biological specimens and media tested. This scale is valid for this experiment as well as all those that follow. It can be defined in the following way: • 0 corresponds to no activity, • 0.1 corresponds to a trace of color, • 0.5 corresponds to very pale coloration, • 1 corresponds to clear but low-intensity coloration, • 1.5 corresponds to a degree of coloration intermediate between scores 1 and 2, • 2 corresponds to clear coloration of moderate intensity, • 2.5 corresponds to a degree of coloration intermediate between scores 2 and 3, • 3 corresponds to intense coloration, • 3.5 corresponds to a degree of coloration intermediate between scores 3 and 4, • 4 corresponds to very intense coloration.
(§2) A stock solution of each substrate at a concentration of 40 g/l was made up in a mixture of 40% Dimethylsulfoxide and 60% Tween 20. An appropriate volume was added to four Columbia-type media while cooling to give a final substrate concentration of 250 mg/l. These dishes were divided into three areas and then each area was inoculated with a suspension (density=0.5 McFarland) of microorganisms taken from either the Applicant's own collection or the ATCC. The dishes were incubated for 48 hours at 37° C. The colonies which grew were examined by eye after 24 and 48 hours of incubation. Both the color and the intensity of the color of the colonies were recorded.

[2] = test system: Listeria innocua ATCC 33090; experiment: as above; design: key: —: the symbol “-” corresponds to the absence of color or intensity; 0 corresponds to no activity; 0.1 corresponds to a trace of color; 0.5 corresponds to very pale coloration; 1 corresponds to clear but low-intensity coloration; 1.5 corresponds to a degree of coloration intermediate between scores 1 and 2; 2 corresponds to clear coloration of moderate intensity; 2.5 corresponds to a degree of coloration intermediate between scores 2 and 3; 3 corresponds to intense coloration; 3.5 corresponds to a degree of coloration intermediate between scores 3 and 4; 4 corresponds to very intense coloration; conditions: 37° C., substrate 250 mg/l
Description: as §1, §2

[3] = test system: Listeria species; experiment: Experiment 3: differentiation of Listeria species in liquid medium
Description: as §1
These substrates were lyophilized in the wells of API-type strips (Registered Trademark). Before use, the substrates contained in the wells were resuspended in an agar-free Columbia-type inoculation medium. […]
The intensity of the color of the colonies was recorded.

Row | C (color of the colonies) ([1]; IT 24 h) | C (color of the colonies) ([1]; IT 48 h) | C (color of the colonies) ([2]; IT 24 h) | C (color of the colonies) ([2]; IT 48 h) | SMILES | I (intensity of the color) ([1]; IT 24 h) | I (intensity of the color) ([1]; IT 48 h) | I (intensity of the color) ([2]; IT 24 h) | I (intensity of the color) ([2]; IT 48 h) | differentiation between L. monocytogenes and other species belonging to the same genus [3]
1 | gray | gray | gray | gray | CCCCCCCC(=O)Oc1c[nH]c2ccc(Br)cc12 [Blue-C8, 5-Bromo-3-indolyl octanoate] | 0.3 | 1 | 0.3 | 0.5 | 
2 | purple | purple | purple | purple | CCCCCCCC(=O)Oc1c[nH]c2cc(Cl)c(Br)cc12 [Magenta-C8, 5-Bromo-6-chloro-3-indolyl octanoate] | 2 | 3 | 1 | 2 | 
3 | turquoise | turquoise | turquoise | turquoise | CCCCCCCC(=O)Oc1c[nH]c2ccc(Br)c(Cl)c12 [X-C8, 5-Bromo-4-chloro-3-indolyl octanoate] | 0.3 | 0.5 | 0.3 | 0.5 | gave a contrast in color

Row | SMILES | C (color of the colonies) ([1]; IT 24 h) | C (color of the colonies) ([1]; IT 48 h) | C (color of the colonies) ([2]; IT 24 h) | C (color of the colonies) ([2]; IT 48 h) | I (intensity of the color) ([1]; IT 24 h) | I (intensity of the color) ([1]; IT 48 h) | I (intensity of the color) ([2]; IT 24 h) | I (intensity of the color) ([2]; IT 48 h) | differentiation between L. monocytogenes and other species belonging to the same genus [3]
4 | CCCCCCCC(=O)Oc1c[nH]c2cc(Cl)ccc12 [Pink-C8, 6-Chloro-3-indolyl octanoate] | — | pink | — | pink | — | 0.3 | — | 0.5 | 
